Tests used:
[1] = target: full-length MALT1 protein (Strep-MALT1(1-824)-His) (Homo sapiens (Human), UniProt Q9UDY8); experiment: MALT1 Biochemical Protease Assay (Ac-LRSR-AMC substrate); details: 10 nM FL MALT1, 200 μM Ac-LRSR-AMC, 4 h at RT; read-out: MALT1_Biochemical activity (Ac-LRSR-amc) IC50
Outline: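 Fluorescence from AMC release off the quenched LRSR substrate was read after a 4 h reaction at RT. Values were normalised to no-enzyme and uninhibited controls and fitted for IC50 and Hill coefficient.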

[2] = system: IL6 secretion by TMD8 ABC-DLBCL cells; experiment: Human IL6 Mesoscale assay (TMD-8); format: cell-based; details: Homo sapiens, TMD8; TMD-8 cells, 24 h
Outline: (§1)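 Read-out: MSD electrochemiluminescence of IL6/IL10 in supernatants. Cells (100,000/well, no beta-mercaptoethanol) were exposed to compounds at 15 μM down to 58.6 nM, 1:2 dilutions, for 24 h at 37° C, 5% CO2. Normalised between DMSO (high) and RN486 (low) controls.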

[3] = system: IL10 secretion by TMD8 ABC-DLBCL cells; experiment: Human IL10 Mesoscale assay (TMD-8); format: cell-based; details: Homo sapiens, TMD8; TMD-8 cells, 24 h
Outline: as §1

Chain of full-length MALT1 protein (Strep-MALT1(1-824)-His) (Q9UDY8 whole entry): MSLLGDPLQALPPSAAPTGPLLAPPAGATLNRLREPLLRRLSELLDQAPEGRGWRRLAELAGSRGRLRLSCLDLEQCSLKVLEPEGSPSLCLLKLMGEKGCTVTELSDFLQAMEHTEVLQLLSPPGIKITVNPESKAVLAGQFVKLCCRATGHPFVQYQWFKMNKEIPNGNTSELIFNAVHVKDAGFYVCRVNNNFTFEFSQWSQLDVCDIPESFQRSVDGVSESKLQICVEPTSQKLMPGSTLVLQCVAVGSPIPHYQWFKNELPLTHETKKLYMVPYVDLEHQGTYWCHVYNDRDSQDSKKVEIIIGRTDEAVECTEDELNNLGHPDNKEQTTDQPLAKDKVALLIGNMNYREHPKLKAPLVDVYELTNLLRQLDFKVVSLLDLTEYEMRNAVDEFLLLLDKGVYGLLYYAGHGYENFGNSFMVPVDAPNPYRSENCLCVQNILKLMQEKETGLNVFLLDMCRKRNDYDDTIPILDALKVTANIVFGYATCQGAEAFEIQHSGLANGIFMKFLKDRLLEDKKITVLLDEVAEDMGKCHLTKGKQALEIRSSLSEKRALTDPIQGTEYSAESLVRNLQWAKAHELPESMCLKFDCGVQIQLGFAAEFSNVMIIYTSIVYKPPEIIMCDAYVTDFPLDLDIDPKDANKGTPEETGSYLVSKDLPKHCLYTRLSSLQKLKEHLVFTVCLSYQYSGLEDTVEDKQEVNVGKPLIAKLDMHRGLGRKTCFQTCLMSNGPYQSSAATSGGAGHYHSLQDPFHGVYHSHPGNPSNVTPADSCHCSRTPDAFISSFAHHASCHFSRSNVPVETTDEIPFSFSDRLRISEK

| IC50 [1] [nM] | IC50 [2] [nM] | IC50 [3] [nM] | SMILES |
| --- | --- | --- | --- |
| 60 | 98 | 56 | O=C(Nc1cnc(-n2nccn2)c(Cl)c1)c1cnn(-c2cnc(C(F)F)c3sccc23)c1C(F)(F)F [Cpd 398, N-(5-chloro-6-(2H-1,2,3-triazol-2-yl)pyridin-3-yl)-1-(7-(difluoromethyl)thieno[2,3-c]pyridin-4-yl)-5-(trifluoromethyl)-1H-pyrazole-4-carboxamide] |
| 191 | > 302 | > 302 | N#Cc1cc(NC(=O)c2cnn(-c3ncc(F)c4ccccc34)c2C(F)(F)F)cnc1-n1nccn1 [Cpd 263, N-(5-cyano-6-(2H-1,2,3-triazol-2-yl)pyridin-3-yl)-1-(4-fluoroisoquinolin-1-yl)-5-(trifluoromethyl)-1H-pyrazole-4-carboxamide] |
| 186 | 58 | 46 | NC(=O)c1nccc2c(-n3ncc(C(=O)Nc4cnc(-n5nccn5)c(Cl)c4)c3C(F)(F)F)cccc12 [Cpd 389, 5-(4-((5-chloro-6-(2H-1,2,3-triazol-2-yl)pyridin-3-yl)carbamoyl)-5-(trifluoromethyl)-1H-pyrazol-1-yl)isoquinoline-1-carboxamide] |
| 1780 | 7590 | 2510 | O=C(Nc1cnc(-n2nccn2)c(Cl)c1)c1cnn(-c2cnc([C@@H]3CCCO3)c3ccccc23)c1C(F)(F)F (single isomer, unassigned) [Cpd 437, (*S)—N-(5-chloro-6-(2H-1,2,3-triazol-2-yl)pyridin-3-yl)-1-(1-(tetrahydrofuran-2-yl)isoquinolin-4-yl)-5-(trifluoromethyl)-1H-pyrazole-4-carboxamide] |
| 13 | > 3020 | 204 | O=C(Nc1cnc(-n2nccn2)c(Cl)c1)c1cnn(-c2cnc(N3CC(O)C3)c3sccc23)c1C(F)(F)F [Cpd 430, N-(5-chloro-6-(2H-1,2,3-triazol-2-yl)pyridin-3-yl)-1-(7-(3-hydroxyazetidin-1-yl)thieno[2,3-c]pyridin-4-yl)-5-(trifluoromethyl)-1H-pyrazole-4-carboxamide] |
| 661 | 1660 | 1440 | N#Cc1cc(NC(=O)c2cnn(-c3cc(N)nc4ccccc34)c2C(F)(F)F)cnc1-n1nccn1 [Cpd 329, 1-(2-aminoquinolin-4-yl)-N-(5-cyano-6-(2H-1,2,3-triazol-2-yl)pyridin-3-yl)-5-(trifluoromethyl)-1H-pyrazole-4-carboxamide] |
| 105 | > 15100 | 955 | N#Cc1cc(NC(=O)c2cnn(-c3cccc4nc(N)nn34)c2C(F)(F)F)cnc1-n1nccn1 [Cpd 159, 1-(2-amino-[1,2,4]triazolo[1,5-a]pyridin-5-yl)-N-(5-cyano-6-(2H-1,2,3-triazol-2-yl)pyridin-3-yl)-5-(trifluoromethyl)-1H-pyrazole-4-carboxamide] |
| 11 | 550 | 240 | COc1ncc(NC(=O)c2cnn(-c3cccc4c(=O)[nH]ccc34)c2C(F)(F)F)cc1C#N [Cpd 428, N-(5-cyano-6-methoxypyridin-3-yl)-1-(1-oxo-1,2-dihydroisoquinolin-5-yl)-5-(trifluoromethyl)-1H-pyrazole-4-carboxamide] |
| 195 | 794 | 479 | O=C(Nc1cnc(-n2nccn2)c(Cl)c1)c1cnn(-c2ccc(F)c3cccnc23)c1C(F)(F)F [Cpd 261, N-(5-chloro-6-(2H-1,2,3-triazol-2-yl)pyridin-3-yl)-1-(5-fluoroquinolin-8-yl)-5-(trifluoromethyl)-1H-pyrazole-4-carboxamide] |
| 347 | > 1510 | 1780 | Cc1nc2cccc(-n3ncc(C(=O)Nc4cnc(-n5nccn5)c(C#N)c4)c3C(F)(F)F)c2s1 [Cpd 247, N-(5-cyano-6-(2H-1,2,3-triazol-2-yl)pyridin-3-yl)-1-(2-methylbenzo[d]thiazol-7-yl)-5-(trifluoromethyl)-1H-pyrazole-4-carboxamide] |
| 1200 | 257 | 93 | Cn1ccc2c(-n3ncc(C(=O)Nc4cnc(-n5nccn5)c(Cl)c4)c3C(F)(F)F)cccc2c1=O [Cpd 226, N-(5-chloro-6-(2H-1,2,3-triazol-2-yl)pyridin-3-yl)-1-(2-methyl-1-oxo-1,2-dihydroisoquinolin-5-yl)-5-(trifluoromethyl)-1H-pyrazole-4-carboxamide] |
| 2000 | 126 | 54 | NC(=O)c1ccc2c(-n3ncc(C(=O)Nc4cnc(-n5nccn5)c(Cl)c4)c3C(F)(F)F)cccc2n1 [Cpd 388, 5-(4-((5-chloro-6-(2H-1,2,3-triazol-2-yl)pyridin-3-yl)carbamoyl)-5-(trifluoromethyl)-1H-pyrazol-1-yl)quinoline-2-carboxamide] |
| 214 | 224 | 200 | Cc1cc2nccc(-n3ncc(C(=O)Nc4cnc(-n5nccn5)c(C#N)c4)c3C(F)(F)F)c2o1 [Cpd 151, N-(5-cyano-6-(2H-1,2,3-triazol-2-yl)pyridin-3-yl)-1-(2-methylfuro[3,2-b]pyridin-7-yl)-5-(trifluoromethyl)-1H-pyrazole-4-carboxamide] |
| 107 | 56 | 21 | NC(=O)c1cc(-n2ncc(C(=O)Nc3cnc(-n4nccn4)c(Cl)c3)c2C(F)(F)F)c2ccccc2n1 [Cpd 386, 4-(4-((5-chloro-6-(2H-1,2,3-triazol-2-yl)pyridin-3-yl)carbamoyl)-5-(trifluoromethyl)-1H-pyrazol-1-yl)quinoline-2-carboxamide] |
| 13 | 46 | 50 | C[C@H](O)c1ncc(-n2ncc(C(=O)Nc3cnc(-n4nccn4)c(Cl)c3)c2C(F)(F)F)c2ccccc12 (single isomer, unassigned) [Cpd 443, (*S)—N-(5-chloro-6-(2H-1,2,3-triazol-2-yl)pyridin-3-yl)-1-(1-(1-hydroxyethyl)isoquinolin-4-yl)-5-(trifluoromethyl)-1H-pyrazole-4-carboxamide] |
| 1120 | 912 | 331 | O=C(Nc1cnc2[nH]ncc2c1)c1cnn(-c2cccc3ncccc23)c1C(F)(F)F [Cpd 229, N-(1H-pyrazolo[3,4-b]pyridin-5-yl)-1-(quinolin-5-yl)-5-(trifluoromethyl)-1H-pyrazole-4-carboxamide] |
| 776 | 708 | 1120 | COc1cc(NC(=O)c2cnn(-c3cccc4ncccc34)c2C(F)(F)F)cnc1-n1ccnn1 [Cpd 235, N-(5-methoxy-6-(1H-1,2,3-triazol-1-yl)pyridin-3-yl)-1-(quinolin-5-yl)-5-(trifluoromethyl)-1H-pyrazole-4-carboxamide] |
| 12 | 245 | 126 | Cc1nc(-n2nccn2)c(Cl)cc1NC(=O)c1cnn(-c2cnc(C(N)=O)c3sccc23)c1C(F)(F)F [Cpd 393, 4-(4-((5-chloro-2-methyl-6-(2H-1,2,3-triazol-2-yl)pyridin-3-yl)carbamoyl)-5-(trifluoromethyl)-1H-pyrazol-1-yl)thieno[2,3-c]pyridine-7-carboxamide] |
| 871 | 105 | 112 | O=C(Nc1cnc(-n2nccn2)c(Cl)c1)c1cnn(-c2cnc(C3CNC3)c3ccccc23)c1C(F)(F)F [Cpd 403, 1-(1-(azetidin-3-yl)isoquinolin-4-yl)-N-(5-chloro-6-(2H-1,2,3-triazol-2-yl)pyridin-3-yl)-5-(trifluoromethyl)-1H-pyrazole-4-carboxamide] |

Reference: patent US10954214B2 (Janssen Pharmaceutica NV, priority 2016, dated 2021)
